Molecular target: T1, vanilloid receptor 1 (VR1/TRPV1 receptor) (Homo sapiens, UniProt Q8NER1)
T1 construct: expressed in transfected cells; host or cells: CHO K1 cells (ECACC), stably transfected
Assay: Functional testing on vanilloid receptor 1: FLIPR Ca2+ influx assay against capsaicin (Cap) in transfected CHO K1 cells (pharmacological method II); for Ki: 100 nM capsaicin
Assay type: cell-based
Parameters: key to (f) Ki (human being) [nM] Cap: agonist classification: AG = agonist
Settings: human VR1 in CHO K1 cells; AG printed instead of a Ki
Excerpt: […]

T1 sequence (Q8NER1 whole entry): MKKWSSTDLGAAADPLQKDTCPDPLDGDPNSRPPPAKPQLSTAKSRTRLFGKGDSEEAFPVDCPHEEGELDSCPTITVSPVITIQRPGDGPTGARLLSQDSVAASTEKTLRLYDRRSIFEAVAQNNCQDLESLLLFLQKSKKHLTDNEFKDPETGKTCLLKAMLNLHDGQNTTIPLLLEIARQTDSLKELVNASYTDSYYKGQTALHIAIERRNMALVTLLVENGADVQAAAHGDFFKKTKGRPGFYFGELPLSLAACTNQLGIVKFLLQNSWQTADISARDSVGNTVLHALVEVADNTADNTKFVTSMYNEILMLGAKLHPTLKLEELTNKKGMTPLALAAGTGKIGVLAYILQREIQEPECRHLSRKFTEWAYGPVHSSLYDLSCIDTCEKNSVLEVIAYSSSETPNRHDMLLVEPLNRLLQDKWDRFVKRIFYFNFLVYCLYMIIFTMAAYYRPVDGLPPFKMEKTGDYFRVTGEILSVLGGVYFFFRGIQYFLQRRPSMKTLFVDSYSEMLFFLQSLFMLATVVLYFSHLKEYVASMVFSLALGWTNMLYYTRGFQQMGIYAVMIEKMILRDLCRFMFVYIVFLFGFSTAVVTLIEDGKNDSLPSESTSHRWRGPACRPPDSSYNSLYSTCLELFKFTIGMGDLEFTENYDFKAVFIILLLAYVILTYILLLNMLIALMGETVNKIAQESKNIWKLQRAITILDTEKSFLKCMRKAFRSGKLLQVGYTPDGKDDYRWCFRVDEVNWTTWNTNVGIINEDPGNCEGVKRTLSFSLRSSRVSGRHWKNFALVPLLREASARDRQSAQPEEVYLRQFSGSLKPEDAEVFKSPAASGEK

Row | Structure (SMILES) | (f) Ki (human being) [nM] Cap: agonist classification
1 | CC(C(=O)NCc1cc(C(C)(C)C)nn1-c1cccc(F)c1)c1ccc(CO)c(F)c1 (stereo not shown) [A37, N-[[5-tert-Butyl-2-(3-fluorophenyl)-2H-pyrazol-3-yl]-methyl]-2-[3-fluoro-4-(hydroxymethyl)-phenyl]-propionamide] | AG
2 | CC(C(=O)NCc1cc(C(C)(C)C)nn1-c1ccc(F)c(F)c1)c1ccc(CO)c(F)c1 (stereo not shown) [A39, N-[[5-tert-Butyl-2-(3,4-difluoro-phenyl)-2H-pyrazol-3-yl]-methyl]-2-[3-fluoro-4-(hydroxymethyl)-phenyl]-propionamide] | AG
3 | CC(C(=O)NCc1cc(C(C)(C)C)nn1-c1ccc(F)c(Cl)c1)c1ccc(CO)c(F)c1 (stereo not shown) [A41, N-[[5-tert-Butyl-2-(3-chloro-4-fluoro-phenyl)-2H-pyrazol-3-yl]-methyl]-2-[3-fluoro-4-(hydroxymethyl)-phenyl]-propionamide] | AG
4 | CC(C(=O)NCc1cc(C(C)(C)C)nn1-c1cccc(C(F)(F)F)c1)c1ccc(CO)c(F)c1 (stereo not shown) [A47, N-[[5-tert-Butyl-2-[3-(trifluoromethyl)phenyl]-2H-pyrazol-3-yl]-methyl]-2-[3-fluoro-4-(hydroxymethyl)-phenyl]-propionamide] | AG
5 | CC(C(=O)NCc1cc(C(F)(F)F)nn1-c1cccc(C(F)(F)F)c1)c1ccc(CO)c(F)c1 (stereo not shown) [A48, 2-[3-Fluoro-4-(hydroxymethyl)-phenyl]-N-[[5-(trifluoromethyl)-2-[3-(trifluoromethyl)phenyl]-2H-pyrazol-3-yl]-methyl]-propionamide] | AG

Same assay, conditions: read-out: (f) Ki (human being) [nM] Cap

Row | Structure (SMILES) | Ki [nM]
6 | C[C@@H](C(=O)NCc1cc(C(F)(F)F)nn1-c1cccc(Cl)c1)c1ccc(CO)c(F)c1 [A35, (2R)-N-[[2-(3-Chlorophenyl)-5-(trifluoromethyl)-2H-pyrazol-3-yl]-methyl]-2-[3-fluoro-4-(hydroxymethyl)-phenyl]-propionamide] | 1
7 | CC(C(=O)NCc1cc(C(F)(F)F)nn1-c1cccc(F)c1)c1ccc(CO)c(F)c1 (stereo not shown) [A38, 2-[3-Fluoro-4-(hydroxymethyl)-phenyl]-N-[[2-(3-fluorophenyl)-5-(trifluoromethyl)-2H-pyrazol-3-yl]-methyl]-propionamide] | 11
8 | CC(C(=O)NCc1cc(C(F)(F)F)nn1-c1ccc(F)c(F)c1)c1ccc(CO)c(F)c1 (stereo not shown) [A40, N-[[2-(3,4-Difluoro-phenyl)-5-(trifluoromethyl)-2H-pyrazol-3-yl]-methyl]-2-[3-fluoro-4-(hydroxymethyl)-phenyl]-propionamide] | 27
9 | CC(C(=O)NCc1cc(C(F)(F)F)nn1-c1ccc(F)c(Cl)c1)c1ccc(CO)c(F)c1 (stereo not shown) [A42, N-[[2-(3-Chloro-4-fluoro-phenyl)-5-(trifluoromethyl)-2H-pyrazol-3-yl]-methyl]-2-[3-fluoro-4-(hydroxymethyl)-phenyl]-propionamide] | 3
10 | COc1cccc(-n2nc(C(F)(F)F)cc2CNC(=O)C(C)c2ccc(CO)c(F)c2)c1 (stereo not shown) [A43, 2-[3-Fluoro-4-(hydroxymethyl)-phenyl]-N-[[2-(3-methoxyphenyl)-5-(trifluoromethyl)-2H-pyrazol-3-yl]-methyl]-propionamide] | 21
11 | CC(C)c1cccc(-n2nc(C(F)(F)F)cc2CNC(=O)C(C)c2ccc(CO)c(F)c2)c1 (stereo not shown) [A44, 2-[3-Fluoro-4-(hydroxymethyl)-phenyl]-N-[[2-(3-isopropyl-phenyl)-5-(trifluoromethyl)-2H-pyrazol-3-yl]-methyl]-propionamide] | 0.2
12 | CC(C(=O)NCc1cc(C(C)(C)C)nn1-c1ccc(F)cc1)c1ccc(CO)c(F)c1 (stereo not shown) [A45, N-[[5-tert-Butyl-2-(4-fluorophenyl)-2H-pyrazol-3-yl]-methyl]-2-[3-fluoro-4-(hydroxymethyl)-phenyl]-propionamide] | 1
13 | CC(C(=O)NCc1cc(C(F)(F)F)nn1-c1ccc(F)cc1)c1ccc(CO)c(F)c1 (stereo not shown) [A46, 2-[3-Fluoro-4-(hydroxymethyl)-phenyl]-N-[[2-(4-fluorophenyl)-5-(trifluoromethyl)-2H-pyrazol-3-yl]-methyl]-propionamide] | 46

From patent publication EP2776398B1, “SUBSTITUTED PYRAZOLYL-BASED UREA DERIVATIVES AS VANILLOID RECEPTOR LIGANDS” (Medifron DBT Inc., priority 2011, dated 2013)
